{
  "source": "patent US9642829B2",
  "about": "“Antifungal compound and uses thereof” (The University of Hong Kong, priority 2012, dated 2017)",
  "key": {"C. albicans [1]": {"tested_on": "C. albicans", "assay": "Antifungal susceptibility (MIC/MFC), CLSI criteria, 96-well double dilution", "format": "cell-based, Candida albicans", "settings": "for Susceptibility (MIC90): 0.5 McFarland inoculum (10^6 cells/ml)", "description": "(§1) Antifungal activity of the small molecules was evaluated using USA standards, Clinical and Laboratory Standards Institute (CLSI) criteria. In brief, inocula from 24 h Candida cultures on Sabourauds's dextore agar were standardized to a turbidity equivalent of 0.5 McFarland standards at 520 nm with a spectrophotometer. The suspensions were further diluted in Rosewell Park Memorial Institute (RPMI) 1640 medium (Life technologies, New York, USA) to yield an inoculum concentration of approximately 0.5 1×10^3 to 2.5 1×10^3 cells/ml. Minimum inhibitory concentration (MIC) and minimum fungicidal concentration (MFC) assay was performed in 96-well plates (Iwaki, Tokyo, Japan) and each of the Candida species was exposed to a double dilution of SM21. Amphotericin B was used as a positive control. All the experiments were preformed three occasions with duplicates for all isolates. The plates were incubated at 35° C. for 48 h to evaluate MIC. In the case of Cryotococcus neoformans, reading were taken after 72 h. Aforementioned assay was performed for C. albicans ATCC 90028, C. albicans SC5314 and 10 C. albicans clinical isolates. Moreover, MIC/MFC determination was carried out for other fungal species such as C. glabrata, C. krusei, C. tropicalis, C. parapsilosis, C. neoformans, Aspergillus fumigates and Penicillium marneffei. […] Next using dose-dependent assay we tested that MIC/MFC of SM21 from 10^3 cells/ml to 10^7 cells/ml of C. albicans (Table 2). Each of the foregoing experiment was repeated on three different occasions."}, "resistant isolate T-1549": {"tested_on": "resistant isolate T-1549", "assay": "Antifungal activity compared with caspofungin and amphotericin B (FIG. 2, CLSI M44-A disc diffusion)", "format": "cell-based, C. guilliermondii", "settings": "resistant isolate T-1549 (FIG. 2C)", "from_the_text": "(§2) Oral Biosciences laboratory has one of the largest collections of fungal isolates, particular that of Candida species in the world. In our previous studies, we have found multidrug resistant clinical isolates of Candida species against existing antifungals. In particular, some of these strains are resistant to best antifungal agents to date such as caspofungin, amphotericin B and fluconazole. Therefore, we performed antifungal susceptibility testing for SM21 against these drug resistant Candida isolates suing CLSI M27A brothmicrodultion assay and CLSI M44-A disc diffusion assay."}, "[2]": {"tested_on": "Candida albicans invasion of human oral keratinocytes", "assay": "Candida-human oral keratinocytes co-culture model", "format": "cell-based", "settings": "1×10^4 cells/ml C. albicans with human oral keratinocytes, 24-h incubation", "description": "We also examined the ability of SM21 to inhibit invasion of Candida albicans in Candida-human oral keratinocytes co-culture model. Primary human oral keratinocytes (ScienCell Research Laboratories™, Carlsbad, Calif., USA) at passage two were cultured using Defined Keratinocyte-Serum Free Medium (Gibco, Grand Island, N.Y., USA) which contained 0.2% Defined Keratinocyte-SFM Growth Supplement (Gibco) and 1% penicillin/streptomycin solution. Cells were incubated at 37° C. in a humidified atmosphere with 5% CO2 and 95% air. Yeast cells for inoculation were cultured for 24 h at 37° C. on Sabouraud dextrose agar (Difco, Hampshire, England). A sample of the culture was washed thrice in PBS and an inoculum of approximately 2×10^5 cells was suspended in 10 ml of YPG medium (1% yeast extract, 2% peptone and 2% glucose; Difco, Detroit, Mich.). The suspension was cultured for 18 h at 37° C. with orbital shaking and the cells were harvested, washed in 0.9% NaCl and a sample of cells was resuspended in fresh medium in a shaker for 24 h at 37° C. Afterwards the cells were harvested by centrifuge and the inocula were prepared in phosphate buffered saline (PBS, pH 7.2). Human oral keratinocytes were grown to 80-90% confluence in u-Slide 8-well plates (ibidi GmbH Integrated BioDiagnostics, Martinsried, Germany). […]"}, "[3]": {"tested_on": "C. albicans, C. glabrata, C. krusei, C. tropicalis, C. parapsilosis, C. neoformans, Aspergillus fumigates and Penicillium marneffei", "assay": "Antifungal activity against wide range of fungal species (summary)", "format": "cell-based", "settings": "range over fungal species", "description": "(§3) Antifungal activity of the small molecules was evaluated using USA standards, Clinical and Laboratory Standards Institute (CLSI) criteria. In brief, inocula from 24 h Candida cultures on Sabourauds's dextore agar were standardized to a turbidity equivalent of 0.5 McFarland standards at 520 nm with a spectrophotometer. The suspensions were further diluted in Rosewell Park Memorial Institute (RPMI) 1640 medium (Life technologies, New York, USA) to yield an inoculum concentration of approximately 0.5 1×10^3 to 2.5 1×10^3 cells/ml. Minimum inhibitory concentration (MIC) and minimum fungicidal concentration (MFC) assay was performed in 96-well plates (Iwaki, Tokyo, Japan) and each of the Candida species was exposed to a double dilution of SM21. Amphotericin B was used as a positive control. All the experiments were preformed three occasions with duplicates for all isolates. The plates were incubated at 35° C. for 48 h to evaluate MIC. In the case of Cryotococcus neoformans, reading were taken after 72 h. Aforementioned assay was performed for C. albicans ATCC 90028, C. albicans SC5314 and 10 C. albicans clinical isolates. Moreover, MIC/MFC determination was carried out for other fungal species such as C. glabrata, C. krusei, C. tropicalis, C. parapsilosis, C. neoformans, Aspergillus fumigates and Penicillium marneffei. […]"}, "Escherichia coli": {"tested_on": "Escherichia coli", "assay": "Antibacterial activity (FIG. 3)", "format": "cell-based", "settings": "dose of 2 μg", "description": "(§4) FIGS. 3A-C. Antibacterial activity of SM21 at dose of 2 μg was examined for three bacterial species together with other antifungal agents caspofungin, amphotericin B and chlorhexidine. (A) Lactobacillus acidophilus (B) Streptococcus mutans and (C) Escherichia coli were used for the experiments.\nas §2"}, "[4]": {"tested_on": "Lactobacillus acidophilus", "assay": "Antibacterial activity (FIG. 3)", "format": "cell-based", "settings": "dose of 2 μg", "description": "as §4, §2"}, "Streptococcus mutans": {"tested_on": "Streptococcus mutans", "assay": "Antibacterial activity (FIG. 3)", "format": "cell-based", "settings": "dose of 2 μg", "description": "as §4, §2"}, "C. albicans [5]": {"tested_on": "C. albicans", "assay": "Dose-dependent assay of MIC/MFC at different cell densities", "format": "cell-based, Candida albicans", "set-up": "unit not given here", "description": "as §1"}, "[6]": {"tested_on": "C. tropicalis drug resistant isolates", "assay": "Susceptibility of multidrug resistant clinical isolates, CLSI M27A broth microdilution", "format": "cell-based, Candida tropicalis", "settings": "resistant to Itraconazole", "from_the_text": "as §2"}, "C. krusei": {"tested_on": "C. krusei", "assay": "Antifungal susceptibility (MIC/MFC), CLSI criteria", "format": "cell-based, Candida krusei", "settings": "C. krusei ATCC; 0.5 McFarland inoculum (10^6 cells/ml)", "description": "as §3"}, "C. parapsilosis": {"tested_on": "C. parapsilosis", "assay": "Antifungal susceptibility (MIC/MFC), CLSI criteria", "format": "cell-based, Candida parapsilosis", "settings": "C. parapsilosis ATCC; 0.5 McFarland inoculum (10^6 cells/ml)", "description": "as §3"}, "[7]": {"assay": "In vivo safety in mouse model", "settings": "200 μg (100 times the effective dose of 2 μg) twice a day for five days", "description": "Next, we used mouse model and treated the animals with 100 times of the effective dose (2 μg) i.e. 200 μg of SM21 twice a day for five days."}, "C. neoformans": {"tested_on": "C. neoformans", "assay": "Antifungal susceptibility (MIC/MFC), CLSI criteria, reading after 72 h", "format": "cell-based, Cryptococcus neoformans", "settings": "0.5 McFarland inoculum (10^6 cells/ml)", "description": "as §3"}},
  "data": [
    {"compound": "CN(C)c1ccc(/C=C/c2cc(C(C)(C)C)[o+]c(C(C)(C)C)c2)cc1.[O-][Cl+3]([O-])([O-])[O-]", "note": "[SM21]", "values": [
      {"measurement": "Antifungal activity against clinical isolates", "setting": "C. albicans [1]; 20 C. albicans strains isolated from HIV/AIDS patients", "result": "active against all isolates"},
      {"measurement": "Susceptibility (MIC90)", "setting": "C. albicans [1]; C. albicans ATCC 90028", "result": 0.2, "unit": "µg/mL"},
      {"measurement": "Susceptibility (MIC90)", "setting": "C. albicans [1]; C. albicans CL1", "result": 0.2, "unit": "µg/mL"},
      {"measurement": "Susceptibility (MIC90)", "setting": "C. albicans [1]; C. albicans CL2", "result": 0.2, "unit": "µg/mL"},
      {"measurement": "Susceptibility (MIC90)", "setting": "C. albicans [1]; C. albicans CL3", "result": 1.6, "unit": "µg/mL"},
      {"measurement": "Susceptibility (MIC90)", "setting": "C. albicans [1]; C. albicans CL4", "result": 0.8, "unit": "µg/mL"},
      {"measurement": "Susceptibility (MIC90)", "setting": "C. albicans [1]; C. albicans CL5", "result": 1.6, "unit": "µg/mL"},
      {"measurement": "Susceptibility (MIC90)", "setting": "C. albicans [1]; C. albicans CL6", "result": 1.6, "unit": "µg/mL"},
      {"measurement": "Susceptibility (MIC90)", "setting": "C. albicans [1]; C. albicans CL7", "result": 0.8, "unit": "µg/mL"},
      {"measurement": "Susceptibility (MIC90)", "setting": "C. albicans [1]; C. albicans CL8", "result": 0.8, "unit": "µg/mL"},
      {"measurement": "Susceptibility (MIC90)", "setting": "C. albicans [1]; C. albicans CL9", "result": 1.6, "unit": "µg/mL"},
      {"measurement": "Susceptibility (MIC90)", "setting": "C. albicans [1]; C. albicans CL10", "result": 1.6, "unit": "µg/mL"},
      {"measurement": "Susceptibility (MIC90)", "setting": "C. albicans [1]; C. albicans SC5314", "result": 0.2, "unit": "µg/mL"},
      {"measurement": "Effectiveness against resistant isolate", "setting": "resistant isolate T-1549", "result": "effective"},
      {"measurement": "Protection of keratinocytes from C. albicans invasion (LIVE/DEAD, confocal)", "setting": "[2]", "result": "able to prevent the epithelial cell damage"},
      {"measurement": "Concentration with antifungal activity against wide range of fungal species", "setting": "[3]", "result": "0.2 to 6.25", "unit": "µg/mL"},
      {"measurement": "Antibacterial activity", "setting": "Escherichia coli", "result": "not anti-bacterial"},
      {"measurement": "Antibacterial activity", "setting": "[4]", "result": "not anti-bacterial"},
      {"measurement": "Antibacterial activity", "setting": "Streptococcus mutans", "result": "not anti-bacterial"},
      {"measurement": "MIC/MFC", "setting": "C. albicans [5]; C. albicans 10^4 cells/ml", "result": 0.1},
      {"measurement": "MIC/MFC", "setting": "C. albicans [5]; C. albicans 10^5 cells/ml", "result": 0.1},
      {"measurement": "MIC/MFC", "setting": "C. albicans [5]; C. albicans 10^6 cells/ml", "result": 0.2},
      {"measurement": "MIC/MFC", "setting": "C. albicans [5]; C. albicans 10^7 cells/ml", "result": 0.6},
      {"measurement": "MIC", "setting": "[6]; C. tropicalis T789", "result": 1, "unit": "µg/mL"},
      {"measurement": "MIC", "setting": "[6]; C. tropicalis T1148", "result": 0.5, "unit": "µg/mL"},
      {"measurement": "MIC", "setting": "[6]; C. tropicalis T1427", "result": 1, "unit": "µg/mL"},
      {"measurement": "Susceptibility (MIC90)", "setting": "C. krusei", "result": 0.4, "unit": "µg/mL"},
      {"measurement": "Susceptibility (MIC90)", "setting": "C. parapsilosis", "result": 1.6, "unit": "µg/mL"},
      {"measurement": "Detrimental effect in terms of weight reduction and side effects", "setting": "[7]", "result": "did not show any detrimental effect"},
      {"measurement": "Susceptibility (MIC90)", "setting": "C. neoformans", "result": 0.4, "unit": "µg/mL"}
    ]}
  ]
}
